Test results taken from patent publication US20200253978A1, “HETEROCYCLICS AS INHIBITORS OF FIBROBLAST GROWTH FACTOR RECEPTOR” (ADVENT PHARMA CO. LTD., priority 2017, published 2020).

Tests used:
[1] = molecular target: T1, BaF3 cells expressing Tel-FGFR-4 and luciferase (Homo sapiens, UniProt P22455); experiment: BaF3 cellular growth inhibition assay, Tel-FGFR-4 and luciferase (Bright-Glo); assay type: cell-based; conditions: BaF3 Tel-FGFR-4 cells, 2 days incubation, 50% growth inhibition vs DMSO
T1 construct: Luciferase is co-expressed as a viability reporter and is not part of the key; P41212 (Transcription factor ETV6)
Method: (§1) Compounds' inhibitory activities against FGFR-4 or FGFR-1 were measured in BaF3 cells expressing Tel-FGFR-4 and luciferase or Tel-FGFR-1 and luciferase, whose growth was dependent on FGFR-4 or FGFR-1 kinase but independent of IL-3. The cells were plated in 384-well plates in RPMI1640 with 10% FBS. Compounds were added as 11-point dilutions. Cell viability was determined by Bright-Glo luciferase assay (Promega) after cells were incubated with compounds for 2 days. The IC50 value was determined as the concentration for 50% growth inhibition compared to DMSO treated cells (A: IC50<0.1 μM; B: IC50 between 0.1 μM and 1 μM; C: IC50 between 1 μM and 10 μM).

[2] = molecular target: T2, BaF3 cells expressing Tel-FGFR-1 and luciferase (Homo sapiens, UniProt P11362); experiment: BaF3 cellular growth inhibition assay, Tel-FGFR-1 and luciferase (Bright-Glo); assay type: cell-based; conditions: BaF3 Tel-FGFR-1 cells, 2 days incubation, 50% growth inhibition vs DMSO
T2 construct: Luciferase is co-expressed as a viability reporter and is not part of the key; P41212 (Transcription factor ETV6)
Method: as §1

T2 sequence (P11362 478-767 limits assumed): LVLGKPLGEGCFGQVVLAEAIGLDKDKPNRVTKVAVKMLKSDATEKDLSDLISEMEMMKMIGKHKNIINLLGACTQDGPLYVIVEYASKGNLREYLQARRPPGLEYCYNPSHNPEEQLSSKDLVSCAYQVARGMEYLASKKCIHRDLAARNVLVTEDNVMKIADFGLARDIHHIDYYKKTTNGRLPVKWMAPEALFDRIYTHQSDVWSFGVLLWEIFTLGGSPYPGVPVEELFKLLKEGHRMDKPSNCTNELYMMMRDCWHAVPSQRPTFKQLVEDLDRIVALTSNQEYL
T1 sequence (P22455 467-755 limits assumed): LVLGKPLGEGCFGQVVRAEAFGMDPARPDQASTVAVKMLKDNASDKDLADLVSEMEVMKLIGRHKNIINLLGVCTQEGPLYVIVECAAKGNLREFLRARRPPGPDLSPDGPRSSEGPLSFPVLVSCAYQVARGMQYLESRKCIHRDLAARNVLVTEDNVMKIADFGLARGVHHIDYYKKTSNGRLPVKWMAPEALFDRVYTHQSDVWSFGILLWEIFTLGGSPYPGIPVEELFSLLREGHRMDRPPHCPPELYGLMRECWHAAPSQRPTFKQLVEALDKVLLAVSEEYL

| SMILES | IC50 [1] | IC50 ([2]; numeric bounds) | IC50 ([2]; class symbols) |
| --- | --- | --- | --- |
| C=CC(=O)Nc1cc(N2CCN(CC)CC2)ccc1Nc1cc2cc(C(C)(O)c3c(F)c(OC)cc(OC)c3F)oc2cn1 (racemic) [Example 7, (±)-N-(2-((2-(1-(2,6-difluoro-3,5-dimethoxyphenyl)-1-hydroxyethyl)furo[2,3-c]pyridin-5-yl)amino)-5-(4-ethylpiperazin-1-yl)phenyl)acrylamide] | 100 to 1000 nM | > 10 µM | – |
| C=CC(=O)Nc1cc(N2CCN(CC)CC2)ccc1Nc1cc2cc(C(=O)c3c(F)c(OC)cc(OC)c3F)[nH]c2cn1 [Example 21, N-(2-((2-(2,6-difluoro-3,5-dimethoxybenzoyl)-1H-pyrrolo[2,3-c]pyridin-5-yl)amino)-5-(4-ethylpiperazin-1-yl)phenyl)acrylamide] | 100 to 1000 nM | > 3.3 µM | – |
| C=CC(=O)N[C@H]1CCOC[C@H]1Nc1cc2cc(-c3c(Cl)c(OC)cc(OC)c3Cl)oc2cn1 [Example 37, N-((3S,4S)-3-((2-(2,6-dichloro-3,5-dimethoxyphenyl)furo[2,3-c]pyridin-5-yl)amino)tetrahydro-2H-pyran-4-yl)acrylamide] | 100 to 1000 nM | > 10 µM | – |
| C=CC(=O)N[C@H]1CCOC[C@H]1Nc1cc2cc(C(=O)c3c(F)c(OC)cc(OC)c3F)oc2cn1 [Example 12, N-((3S,4S)-3-((2-(2,6-difluoro-3,5-dimethoxybenzoyl)furo[2,3-c]pyridin-5-yl)amino)tetrahydro-2H-pyran-4-yl)acrylamide] | 100 to 1000 nM | > 10 µM | – |
| C=CC(=O)Nc1cc(N2CCN(CC)CC2)ccc1Nc1cc2cc(C(O)c3c(F)c(OC)cc(OC)c3F)oc2cn1 (single isomer, unassigned) [Example 13B, N-(2-((2-((2,6-difluoro-3,5-dimethoxyphenyl)(hydroxy)methyl)furo[2,3-c]pyridin-5-yl)amino)-5-(4-ethylpiperazin-1-yl)phenyl)acrylamide] | – | > 10 µM | – |
| C=CC(=O)Nc1cc(N2CCN(CC)CC2)ccc1Nc1cc2cc(C(=O)c3cc(OC)cc(OC)c3)oc2cn1 [Example 11, N-(2-((2-(3,5-dimethoxybenzoyl)furo[2,3-c]pyridin-5-yl)amino)-5-(4-ethylpiperazin-1-yl)phenyl)acrylamide] | 100 to 1000 nM | – | 1 to 10 µM |
| C=CC(=O)Nc1cc(N2CCN(CC)CC2)ccc1Nc1ccc2c(ccn2Cc2c(F)c(OC)cc(OC)c2F)n1 [Example 1, N-(2-((1-(2,6-difluoro-3,5-dimethoxybenzyl)-1H-pyrrolo[3,2-b]pyridin-5-yl)amino)-5-(4-ethylpiperazin-1-yl)phenyl)acrylamide] | 100 to 1000 nM | > 3.3 µM | – |
| C=CC(=O)Nc1cccc(C(F)(F)F)c1Nc1cc2cc(C(=O)c3c(F)c(OC)cc(OC)c3F)oc2cn1 [Example 25, N-(2-((2-(2,6-difluoro-3,5-dimethoxybenzoyl)furo[2,3-c]pyridin-5-yl)amino)-3-(trifluoromethyl)phenyl)acrylamide] | 100 to 1000 nM | > 3.3 µM | – |
| C=CC(=O)Nc1cc(N2CCN(CC)CC2)ccc1Nc1cc2cc(C(F)(F)c3c(F)c(OC)cc(OC)c3F)oc2cn1 [Example 8, N-(2-((2-((2,6-difluoro-3,5-dimethoxyphenyl)difluoromethyl)furo[2,3-c]pyridin-5-yl)amino)-5-(4-ethylpiperazin-1-yl)phenyl)acrylamide] | 100 to 1000 nM | > 10 µM | – |
| C=CC(=O)Nc1cccc(C)c1Nc1ncc2oc(C(=O)c3c(F)c(OC)cc(OC)c3F)cc2n1 [Example 23, N-(2-((6-(2,6-difluoro-3,5-dimethoxybenzoyl)furo[3,2-d]pyrimidin-2-yl)amino)-3-methylphenyl)acrylamide] | < 100 nM | > 6.65 µM | – |
| C=CC(=O)Nc1cc(N2CCN(CC)CC2)ccc1Nc1cc2cc(C(=O)Nc3c(F)c(OC)cc(OC)c3F)oc2cn1 [Example 32, 5-((2-acrylamido-4-(4-ethylpiperazin-1-yl)phenyl)amino)-N-(2,6-difluoro-3,5-dimethoxyphenyl)furo[2,3-c]pyridine-2-carboxamide] | 100 to 1000 nM | > 3.3 µM | – |
| C=CC(=O)Nc1cc(N2CCN(CC)CC2)ccc1Nc1cc2c(C(=O)c3c(F)c(OC)cc(OC)c3F)c[nH]c2cn1 [Example 22, N-(2-((3-(2,6-difluoro-3,5-dimethoxybenzoyl)-1H-pyrrolo[2,3-c]pyridin-5-yl)amino)-5-(4-ethylpiperazin-1-yl)phenyl)acrylamide] | 100 to 1000 nM | – | 1 to 10 µM |
| C=CC(=O)N[C@H]1CCOC[C@H]1Nc1cc2cc(C(O)c3c(F)c(OC)cc(OC)c3F)oc2cn1 (mixture of isomers) [Example 14, (±)N-((3S,4S)-3-((2-((2,6-difluoro-3,5-dimethoxyphenyl)(hydroxy)methyl)furo[2,3-c]pyridin-5-yl)amino)tetrahydro-2H-pyran-4-yl)acrylamide] | 100 to 1000 nM | > 10 µM | – |
| C=CC(=O)Nc1cc(N2CCN(CC)CC2)ccc1Nc1cc2cc(C(O)c3c(F)c(OC)cc(OC)c3F)oc2cn1 (racemic) [Example 5, (±)-N-(2-((2-((2,6-difluoro-3,5-dimethoxyphenyl)(hydroxy)methyl)furo[2,3-c]pyridin-5-yl)amino)-5-(4-ethylpiperazin-1-yl)phenyl)acrylamide] | < 100 nM | > 10 µM | – |
| C=CC(=O)Nc1cccc(Cl)c1Nc1cc2cc(C(O)c3c(F)c(OC)cc(OC)c3F)oc2cn1 (racemic) [Example 29, (±)-N-(3-chloro-2-((2-((2,6-difluoro-3,5-dimethoxyphenyl)(hydroxy)methyl)furo[2,3-c]pyridin-5-yl)amino)phenyl)acrylamide] | < 100 nM | > 10 µM | – |
| C=CC(=O)Nc1cccc(C(F)(F)F)c1Nc1cc2cc(C(O)c3c(F)c(OC)cc(OC)c3F)oc2cn1 (racemic) [Example 30, (±)-N-(2-((2-((2,6-difluoro-3,5-dimethoxyphenyl)(hydroxy)methyl)furo[2,3-c]pyridin-5-yl)amino)-3-(trifluoromethyl)phenyl)acrylamide] | 100 to 1000 nM | > 10 µM | – |
| C=CC(=O)Nc1cccc(C)c1Nc1cc2cc(C(=O)c3c(F)c(OC)cc(OC)c3F)oc2cn1 [Example 17, N-(2-((2-(2,6-difluoro-3,5-dimethoxybenzoyl)furo[2,3-c]pyridin-5-yl)amino)-3-methylphenyl)acrylamide] | < 100 nM | > 10 µM | – |

Continued, values first:

| IC50 [1] | IC50 ([2]; numeric bounds) | IC50 ([2]; class symbols) | SMILES |
| --- | --- | --- | --- |
| < 100 nM | > 5.1 µM | – | C=CC(=O)Nc1cccc(Cl)c1Nc1cc2cc(C(=O)c3c(F)c(OC)cc(OC)c3F)oc2cn1 [Example 26, N-(3-chloro-2-((2-(2,6-difluoro-3,5-dimethoxybenzoyl)furo[2,3-c]pyridin-5-yl)amino)phenyl)acrylamide] |
| < 100 nM | > 10 µM | – | C=CC(=O)Nc1cccc(C)c1Nc1cc2cc(C(O)c3c(F)c(OC)cc(OC)c3F)sc2cn1 (racemic) [Example 28, (±)-N-(2-((2-((2,6-difluoro-3,5-dimethoxyphenyl)(hydroxy)methyl)thieno[2,3-c]pyridin-5-yl)amino)-3-methylphenyl)acrylamide] |
| < 100 nM | > 6.65 µM | – | C=CC(=O)Nc1cccc(C)c1Nc1cc2cc(C(=O)c3c(F)c(OC)cc(OC)c3F)sc2cn1 [Example 24, N-(2-((2-(2,6-difluoro-3,5-dimethoxybenzoyl)thieno[2,3-c]pyridin-5-yl)amino)-3-methylphenyl)acrylamide] |
| < 100 nM | – | 1 to 10 µM | C=CC(=O)Nc1cc(N2CCN(CC)CC2)ccc1Nc1cc2cc(C(=O)c3c(F)c(OC)cc(OC)c3F)sc2cn1 [Example 16, N-(2-((2-(2,6-difluoro-3,5-dimethoxybenzoyl)thieno[2,3-c]pyridin-5-yl)amino)-5-(4-ethylpiperazin-1-yl)phenyl)acrylamide] |
| < 100 nM | > 10 µM | – | C=CC(=O)Nc1cc(N2CCN(CC)CC2)ccc1Nc1cc2cc(C(O)c3c(F)c(OC)cc(OC)c3F)oc2cn1 (single isomer, unassigned) [Example 13A, N-(2-((2-((2,6-difluoro-3,5-dimethoxyphenyl)(hydroxy)methyl)furo[2,3-c]pyridin-5-yl)amino)-5-(4-ethylpiperazin-1-yl)phenyl)acrylamide] |
| < 100 nM | – | 1 to 10 µM | C=CC(=O)Nc1cc(N2CCN(CC)CC2)ccc1Nc1ncc2oc(C(O)c3c(F)c(OC)cc(OC)c3F)cc2n1 (racemic) [Example 31, (±)-N-(2-((6-((2,6-difluoro-3 ,5-dimethoxyphenyl)(hydroxy)methyl)furo[3,2-d]pyrimidin-2-yl)amino)-5-(4-ethylpiperazin-1-yl)phenyl)acrylamide] |
| < 100 nM | > 3.3 µM | – | CCN1CCN(c2ccc(Nc3cc4cc(C(=O)c5c(F)c(OC)cc(OC)c5F)oc4cn3)c(NC(=O)/C=C\Cl)c2)CC1 [Example 33, (Z)-3-chloro-N-(2-((2-(2,6-difluoro-3,5-dimethoxybenzoyl)furo[2,3-c]pyridin-5-yl)amino)-5-(4-ethylpiperazin-1-yl)phenyl)acrylamide] |
| < 100 nM | > 10 µM | – | C=CC(=O)Nc1cc(N2CCN(CC)CC2)ccc1Nc1cc2cc(C(=O)c3c(F)c(OC)cc(OC)c3F)oc2cn1 [Example 3, N-(2-((2-(2,6-difluoro-3,5-dimethoxybenzoyl)furo[2,3-c]pyridin-5-yl)amino)-5-(4-ethylpiperazin-1-yl)phenyl)acrylamide] |
